In brackets after ≈: the same amount, converted by molar mass. Several values for one entry are separate records, joined by “and”; a condition that tells them apart may be missing. Equal values may be shown once. Read-outs that look alike come from different tables or passages of the source.
What was measured:
S. aureus topo IV = S. aureus topo IV (Staphylococcus aureus, UniProt P0C1S7)
Procedure: In all experiments, the activity of the
(§2) enzymes was determined prior to the testing of the compound and 1 unit (U) was defined as the
(§3) amount of enzyme required to just fully supercoil or decatenate the substrate. This amount of
(§4) enzyme was initially used in determination of control inhibitor activity. These experiments were
(§5) performed in duplicate. […] The final DMSO
(§6) concentration was 1% for all assays. All measurements were performed in quadruplicates. The
(§7) condition for each reaction were as follows:
− S. aureus gyrase supercoiling assay
(§8) 1 U of S. aureus gyrase was incubated with 0.5 µg of relaxed pBR322 DNA in a 30 µL reaction at
(§9) magnesium acetate, 10 mM DTT, 2 mM ATP, 500 mM potassium glutamate and 0.05 mg/mL
− S. aureus topo IV decatenation assay
(§10) 1 U of S. aureus topo IV was incubated with 20 µg kDNA in a 30 µL reaction at 37 °C for 30
(§11) mM ATP, 350 mM potassium glutamate and 0.05 mg/mL albumin.
(§12) − A. baumannii gyrase supercoiling assay
(§13) 1 U of A. baumannii gyrase was incubated with 0.5 µg of relaxed pBR322 DNA in a 30 µL reaction
(§14) blue), before being loaded on a 1.0% TAE gel run at 80V for 2 hours. Bands were visualised by
(§15) ethidium bromide staining for 20 minutes and destaining for 20 minutes. Gels were scanned using
(§16) documentation equipment (GeneGenius, Syngene, Cambridge, UK) and % inhibition levels were
(§17) measured by determining the relative fluorescence of the supercoiled band using gel scanning
software. […]

[1] = test system: S. aureus ATCC 700699 (VISA); assay type: in vivo, female CD-1 mice; conditions: for Change in log10CFU/gr of thigh from 2 hour control / Change in log10CFU/gr of thigh from 26 hours control / Average log10CFU/gr of thigh: IV; for Average log10CFU/gr of thigh: 26 h
Procedure: The neutropenic mouse thigh infection model study was performed by NeoSome Life Sciences, LLC (Lexington, MA, USA) according to NeoSome Institutional Animal Care and Use Committee (IACUC) policies and guidelines as well as NIH’s Office of Laboratory Animal Welfare (OLAW) standards.
Neutropenic mouse thigh infection experiments were performed on female CD-1 mice (Charles River Laboratories, USA). To induce neutropenia, mice received two doses of cyclophosphamide on days −4 and −1 with 150 and 100 mg/kg delivered intraperitoneally (IP), respectively. The inoculum of the testing strain, S. aureus ATCC 700699-P1 (VISA), was prepared from overnight agar plate cultures. To prepare bacterial inoculums, a portion of the plate was resuspended in sterile saline and adjusted to an OD of 0.12 at 625 nm. Next, the resulted bacterial suspension was further diluted to reach an infecting inoculum of 6.0 × 10^5 cfu per each mouse. Plate counts of the inoculum were also performed in each case to confirm the inoculum concentration, and the actual inoculum size was 7.25 × 10^5 cfu/mouse. Mice were inoculated with 100 μL of the prepared bacterial suspension via an intramuscular injection into the right rear thigh. […] The test agent was then dosed via IV administration, to ensure optimal distribution, at 2, 10, and 18 h post-infection. Beginning at 2 h, post-infection mice were dosed with either test article or positive control antibiotic. Mice receiving test agents were dosed intravenously at 10 mL/kg. Linezolid was delivered as a SC dose to ensure optimized exposure, distribution, and efficacy. Four animals were dosed per group. One group of four mice was euthanized at the initiation of therapy (t = 2 h) and cfus determined. All remaining mice were euthanized at 26 h post-infection. At termination, thighs were aseptically excised, weighed, and homogenized to a uniform consistency in 2 mL of sterile saline. The homogenate was serially diluted and plated on bacterial growth media. The cfus were enumerated after overnight incubation.

[2] = test system: P. aeruginosa PAO1, PAO750; assay: MIC, wild-type vs efflux-defective; assay type: cell-based; conditions: Pseudomonas aeruginosa
S. aureus DNA gyrase = S. aureus DNA gyrase (Staphylococcus aureus, UniProt P0A0K8); assay: gel-based supercoiling assay
Procedure: In all experiments, the activity of the
as §2, §3, §4, §5, §6, §7
− S. aureus gyrase supercoiling assay
as §8, §9
− S. aureus topo IV decatenation assay
as §10, §11, §12, §13, §14, §15, §16, §17
software. […]

HepG2 cells = assay: mitochondrial toxicity glu/gal assay; assay type: cell-based; conditions: human
Procedure: (§1) HepG2 cells were seeded in two 96-well plates at a density of 50,000 cells per well in 100 μL of growth medium. For the first plate, the growth medium contained glucose and for the second plate, it contained galactose. Cells were incubated overnight in a 5% CO2 atmosphere at 37 °C and allowed to attach onto the wells. […] The medium contained positive control (Rotenone). […] Luminescence was measured with Tecan Infinite 200 pro luminometer, and the values from each well treated with compound were compared to the values given by the negative control (medium only). The inhibition of mitochondrial function was determined by comparing ATP levels in galactose and glucose exposed cells. […]

[3] = mitochondrial toxicity glu/gal assay; assay type: cell-based; conditions: human, read-out: cell viability (ATP), % of control
Procedure: as §1

in vitro = conditions: pH 7.4; for Clint (pred. in vivo) / half-life at 1 h, 1 µM: microsomes
Procedure: Liver microsomal fractions were purchased from XenoTech LLC, (KS, USA). […] To initiate the reaction, 1 mM NADPH was added. Samples were taken at 0, 5, 10, 20, 40, and 60 min. To terminate the reaction, cold acetonitrile with warfarin as an internal standard was added. LC–MS/MS was used to analyze the samples and determine the amount of remaining parent compound. The LC–MS/MS method was the same as described above in Chapter LogD Determination.

hERG channel = biological target: T1, hERG channel (Homo sapiens, UniProt Q12809); assay: whole-cell patch-clamp on HEK293 cells; assay type: cell-based; conditions: 50 µM 7a, mean ± SD
T1 construct: expressed in transfected cells; host or cells: HEK293 cells stably expressing the channel
Source text: hERG inhibition was additionally determined in whole-cell patch-clamp experiments on HEK293 cells stably expressing the channel, as previously described.[55]

[4] = biological target: T2, human DNA topoisomerase IIα (Homo sapiens, UniProt P11388); assay: DNA relaxation assay; assay type: biochemical
T2 construct: purchased Inspiralis
Procedure: Seven concentrations of the inhibitors were used to determine IC50 values which were then calculated with GraphPad Prism 6.0 software. Three independent measurements were performed to determine IC50 values, and mean values are reported as the final result.

T1 sequence (Q12809 whole entry): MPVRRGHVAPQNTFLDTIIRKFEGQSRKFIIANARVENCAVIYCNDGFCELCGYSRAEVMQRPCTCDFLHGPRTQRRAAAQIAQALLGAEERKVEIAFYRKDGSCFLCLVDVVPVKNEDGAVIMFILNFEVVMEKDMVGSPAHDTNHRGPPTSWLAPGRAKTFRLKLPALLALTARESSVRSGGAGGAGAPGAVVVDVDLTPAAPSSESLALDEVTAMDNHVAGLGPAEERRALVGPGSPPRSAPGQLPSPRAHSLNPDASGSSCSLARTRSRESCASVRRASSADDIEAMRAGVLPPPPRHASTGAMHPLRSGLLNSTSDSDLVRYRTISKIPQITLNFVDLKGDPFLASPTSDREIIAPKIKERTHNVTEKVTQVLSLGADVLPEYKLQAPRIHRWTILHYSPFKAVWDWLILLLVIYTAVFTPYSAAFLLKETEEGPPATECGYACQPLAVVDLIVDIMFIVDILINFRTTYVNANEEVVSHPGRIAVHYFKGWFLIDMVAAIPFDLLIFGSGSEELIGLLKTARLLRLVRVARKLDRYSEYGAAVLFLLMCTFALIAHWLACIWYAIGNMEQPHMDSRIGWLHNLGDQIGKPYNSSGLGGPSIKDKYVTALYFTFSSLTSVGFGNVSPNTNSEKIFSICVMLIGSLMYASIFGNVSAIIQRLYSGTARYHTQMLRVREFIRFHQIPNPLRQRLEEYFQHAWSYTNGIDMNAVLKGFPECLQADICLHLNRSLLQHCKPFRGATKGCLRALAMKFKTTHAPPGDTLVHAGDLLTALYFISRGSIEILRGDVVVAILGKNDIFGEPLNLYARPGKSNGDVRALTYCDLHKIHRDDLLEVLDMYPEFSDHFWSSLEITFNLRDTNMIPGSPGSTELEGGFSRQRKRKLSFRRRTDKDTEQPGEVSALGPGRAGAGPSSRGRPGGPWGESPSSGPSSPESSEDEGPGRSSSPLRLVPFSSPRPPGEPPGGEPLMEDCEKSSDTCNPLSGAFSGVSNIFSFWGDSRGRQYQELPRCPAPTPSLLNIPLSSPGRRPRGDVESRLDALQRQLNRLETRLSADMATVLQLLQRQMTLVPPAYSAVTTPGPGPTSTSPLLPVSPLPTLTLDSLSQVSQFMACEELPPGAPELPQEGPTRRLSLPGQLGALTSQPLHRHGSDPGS
Sequence of S. aureus topo IV (P0C1S7 whole entry): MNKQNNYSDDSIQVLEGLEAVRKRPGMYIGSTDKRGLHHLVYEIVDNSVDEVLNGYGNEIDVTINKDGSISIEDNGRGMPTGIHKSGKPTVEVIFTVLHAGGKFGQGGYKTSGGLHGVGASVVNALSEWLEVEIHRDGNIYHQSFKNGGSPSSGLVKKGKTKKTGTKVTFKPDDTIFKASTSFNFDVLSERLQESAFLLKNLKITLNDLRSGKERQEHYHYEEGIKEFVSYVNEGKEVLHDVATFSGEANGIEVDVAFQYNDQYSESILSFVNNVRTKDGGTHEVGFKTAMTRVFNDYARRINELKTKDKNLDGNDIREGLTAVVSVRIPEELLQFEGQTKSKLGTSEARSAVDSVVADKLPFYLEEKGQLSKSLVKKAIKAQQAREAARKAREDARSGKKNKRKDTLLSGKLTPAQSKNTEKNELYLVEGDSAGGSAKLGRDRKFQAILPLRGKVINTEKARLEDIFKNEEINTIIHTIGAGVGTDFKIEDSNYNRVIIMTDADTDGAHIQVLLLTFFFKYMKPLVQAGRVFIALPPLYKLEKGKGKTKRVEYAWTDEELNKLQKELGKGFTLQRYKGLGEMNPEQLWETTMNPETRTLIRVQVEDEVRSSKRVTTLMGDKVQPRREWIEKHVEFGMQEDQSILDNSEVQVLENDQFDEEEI
Sequence of S. aureus topo IV (P0C1U9 whole entry, further chain): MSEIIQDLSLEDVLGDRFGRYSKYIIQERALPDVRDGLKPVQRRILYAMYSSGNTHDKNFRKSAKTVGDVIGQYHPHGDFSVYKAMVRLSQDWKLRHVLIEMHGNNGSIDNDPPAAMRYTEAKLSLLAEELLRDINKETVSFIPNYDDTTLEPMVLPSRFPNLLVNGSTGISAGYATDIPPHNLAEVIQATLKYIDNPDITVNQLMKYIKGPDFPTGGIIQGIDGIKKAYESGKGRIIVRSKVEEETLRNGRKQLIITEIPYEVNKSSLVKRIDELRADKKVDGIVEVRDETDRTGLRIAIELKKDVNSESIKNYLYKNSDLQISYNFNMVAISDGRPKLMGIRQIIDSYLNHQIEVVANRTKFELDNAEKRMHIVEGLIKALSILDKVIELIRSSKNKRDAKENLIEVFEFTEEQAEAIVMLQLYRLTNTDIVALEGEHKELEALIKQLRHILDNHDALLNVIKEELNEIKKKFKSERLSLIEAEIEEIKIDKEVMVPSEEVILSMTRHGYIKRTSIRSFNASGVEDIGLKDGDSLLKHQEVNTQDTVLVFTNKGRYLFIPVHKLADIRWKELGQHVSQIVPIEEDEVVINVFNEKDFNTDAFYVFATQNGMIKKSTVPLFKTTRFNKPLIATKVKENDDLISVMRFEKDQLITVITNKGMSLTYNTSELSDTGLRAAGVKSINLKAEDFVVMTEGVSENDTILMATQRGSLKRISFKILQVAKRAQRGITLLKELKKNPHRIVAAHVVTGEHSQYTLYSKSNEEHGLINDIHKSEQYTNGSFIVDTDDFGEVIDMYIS
T2 sequence (P11388 whole entry): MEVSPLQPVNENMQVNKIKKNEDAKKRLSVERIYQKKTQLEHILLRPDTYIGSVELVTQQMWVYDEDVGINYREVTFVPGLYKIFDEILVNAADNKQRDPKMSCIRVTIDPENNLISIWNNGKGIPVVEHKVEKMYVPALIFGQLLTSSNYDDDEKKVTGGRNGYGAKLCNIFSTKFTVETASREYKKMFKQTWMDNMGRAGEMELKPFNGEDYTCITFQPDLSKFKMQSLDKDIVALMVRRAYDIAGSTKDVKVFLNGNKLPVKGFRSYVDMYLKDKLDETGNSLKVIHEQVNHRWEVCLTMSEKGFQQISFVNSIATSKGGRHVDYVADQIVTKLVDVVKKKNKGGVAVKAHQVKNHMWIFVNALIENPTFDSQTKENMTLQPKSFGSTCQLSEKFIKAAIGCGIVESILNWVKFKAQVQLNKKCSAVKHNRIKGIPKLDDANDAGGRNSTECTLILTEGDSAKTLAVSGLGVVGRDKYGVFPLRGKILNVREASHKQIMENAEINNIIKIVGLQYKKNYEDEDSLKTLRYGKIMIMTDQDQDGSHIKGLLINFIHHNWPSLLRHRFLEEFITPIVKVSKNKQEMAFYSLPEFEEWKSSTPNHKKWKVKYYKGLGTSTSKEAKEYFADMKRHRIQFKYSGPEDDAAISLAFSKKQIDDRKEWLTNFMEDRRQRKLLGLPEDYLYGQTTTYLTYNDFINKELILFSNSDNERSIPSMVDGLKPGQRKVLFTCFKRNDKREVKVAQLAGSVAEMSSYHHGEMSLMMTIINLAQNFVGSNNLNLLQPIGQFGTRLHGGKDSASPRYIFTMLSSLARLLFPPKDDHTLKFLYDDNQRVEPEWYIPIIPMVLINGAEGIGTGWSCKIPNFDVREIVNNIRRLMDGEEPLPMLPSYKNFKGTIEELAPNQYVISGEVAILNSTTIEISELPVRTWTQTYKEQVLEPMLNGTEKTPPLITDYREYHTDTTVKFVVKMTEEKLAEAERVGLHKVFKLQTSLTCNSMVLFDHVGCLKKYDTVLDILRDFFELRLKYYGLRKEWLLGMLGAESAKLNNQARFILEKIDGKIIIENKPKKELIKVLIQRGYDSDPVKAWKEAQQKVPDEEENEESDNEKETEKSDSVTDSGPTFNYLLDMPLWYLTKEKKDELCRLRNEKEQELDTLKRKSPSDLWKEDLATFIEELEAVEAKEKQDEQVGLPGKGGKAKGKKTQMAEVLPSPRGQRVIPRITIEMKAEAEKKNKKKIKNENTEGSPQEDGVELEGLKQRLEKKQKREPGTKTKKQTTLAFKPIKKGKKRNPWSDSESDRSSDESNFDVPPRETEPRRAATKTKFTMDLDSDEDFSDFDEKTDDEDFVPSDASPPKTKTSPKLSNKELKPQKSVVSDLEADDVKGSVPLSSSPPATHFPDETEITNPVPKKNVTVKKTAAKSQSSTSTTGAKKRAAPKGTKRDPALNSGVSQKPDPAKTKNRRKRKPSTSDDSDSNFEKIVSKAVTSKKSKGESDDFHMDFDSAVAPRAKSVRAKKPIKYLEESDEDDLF

Compound: Cc1[nH]c(C(=O)Nc2nc3c(N4CCOCC4)cc(C(=O)O)cc3s2)c(Cl)c1Cl [7a, 2-(3,4-Dichloro-5-methyl-1H-pyrrole-2-carboxamido)-4-morpholinobenzo[d]thiazole-6-carboxylic Acid]
- IC50 (S. aureus topo IV): 8 ± 1.2 nM
- CFU/ g of thigh, single animals ([1]; 10 mg/kg): 1.82E+08 and 2.23E+08 and 2.51E+08 and 1.42E+08
- log CFU, single animals ([1]; 10 mg/kg): 8.26 and 8.35 and 8.40 and 8.15
- Change in log10CFU/gr of thigh from 2 hour control ([1]; 10 mg/kg TID): 2.00
- Change in log10CFU/gr of thigh from 26 hours control ([1]; 10 mg/kg TID): 0.19
- Average log10CFU/gr of thigh ([1]; 10 mg/kg TID): 8.29
- CFU/ g of thigh, single animals ([1]; 25 mg/kg): 4.64E+05 and 4.16E+06 and 1.83E+07 and 9.23E+06
- log CFU, single animals ([1]; 25 mg/kg): 5.67 and 6.62 and 7.26 and 6.97
- reduction compared to 26 h controls ([1]; 25 mg/kg IV): 1.47 log10 cfu
- Change in log10CFU/gr of thigh from 2 hour control ([1]; 25 mg/kg TID): 0.33
- Change in log10CFU/gr of thigh from 26 hours control ([1]; 25 mg/kg TID): -1.47
- Average log10CFU/gr of thigh ([1]; 25 mg/kg TID): 6.63
- CFU/ g of thigh, single animals ([1]; 50 mg/kg): 1.72E+05 and 1.68E+05 and 8.81E+05 and 8.82E+04
- log CFU, single animals ([1]; 50 mg/kg): 5.24 and 5.23 and 5.95 and 4.95
- reduction compared to 26 h controls ([1]; 50 mg/kg IV): 2.76 log10 cfu
- reduction compared to 2 hour infection controls ([1]; 50 mg/kg IV (TID)): 0.96 log10 cfu
- Change in log10CFU/gr of thigh from 2 hour control ([1]; 50 mg/kg TID): -0.96
- Change in log10CFU/gr of thigh from 26 hours control ([1]; 50 mg/kg TID): -2.76
- Average log10CFU/gr of thigh ([1]; 50 mg/kg TID): 5.34
- MIC ([2]; PAO1, P. aeruginosa PAO1): > 64 µg/mL
- MIC ([2]; PAO1, P. aeruginosa PAO750, efflux-defective): 0.25 µg/mL (≈ 0.549 µM)
- IC50 (S. aureus DNA gyrase): 1.22 ± 0.04 nM
- mitotoxic concentration (not mitotoxic up to) (HepG2 cells): > 1000 µM
- viability at 10 µM ([3]; galactose): 98%
- viability at 50 µM ([3]; galactose): 98%
- viability at 100 µM ([3]; galactose): 97%
- viability at 300 µM ([3]; galactose): 98%
- viability at 600 µM ([3]; galactose): 94%
- viability at 1000 µM ([3]; galactose): 83%
- viability at 10 µM ([3]; glucose): 109%
- viability at 50 µM ([3]; glucose): 107%
- viability at 100 µM ([3]; glucose): 105%
- viability at 300 µM ([3]; glucose): 99%
- viability at 600 µM ([3]; glucose): 95%
- viability at 1000 µM ([3]; glucose): 79%
- Clint (pred. in vivo) (in vitro; human): 630 mL/min
- half-life at 1 h, 1 µM (in vitro; human): 1.72 h
- ClH (pred.) (in vitro; human): 14 mL/min
- Epred (in vitro; human): 0.01
- Clint (pred. in vivo) (in vitro; mouse): 1.3 mL/min
- half-life at 1 h, 1 µM (in vitro; mouse): 1.45 h
- ClH (pred.) (in vitro; mouse): 0.03 mL/min
- Epred (in vitro; mouse): 0.01
- hERG inhibition (current reduction) (hERG channel): 0 ± 12%
- IC50 [4]: 17000 nM

From paper PMC10041525, “New Dual Inhibitors of Bacterial Topoisomerases with Broad-Spectrum Antibacterial Activity and In Vivo Efficacy against Vancomycin-Intermediate Staphylococcus aureus” (Journal of Medicinal Chemistry, 2023)
